Data from patent US4504492A, “Pharmaceutical amides, and preparation, formulations and use thereof” (Burroughs Wellcome Co., priority 1981, dated 1985).
Read-outs that look alike come from different tables or passages of the source.

How the values were obtained:
enkephalinase Al = target: T1, enkephalinase Al (Rattus norvegicus, UniProt P07861); assay: Enkephalinase-inhibiting activity in vitro (3H-TGG generation from 3H-leucine enkephalin by purified enkephalinase Al); assay type: biochemical; conditions: approximate, determined graphically; leucine enkephalin 5×10^-5 M, 30° C., 30 mins with enzyme; read-out: IC50 (concentration of test compound required for 50% inhibition of 3H-TGG generation)
T1 construct: from tissue; host or cells: rat striatum (membrane pellet, Triton X-100 solubilised, DEAE-cellulose and Sephacryl S-300)
T1 sequence (P07861 1-750): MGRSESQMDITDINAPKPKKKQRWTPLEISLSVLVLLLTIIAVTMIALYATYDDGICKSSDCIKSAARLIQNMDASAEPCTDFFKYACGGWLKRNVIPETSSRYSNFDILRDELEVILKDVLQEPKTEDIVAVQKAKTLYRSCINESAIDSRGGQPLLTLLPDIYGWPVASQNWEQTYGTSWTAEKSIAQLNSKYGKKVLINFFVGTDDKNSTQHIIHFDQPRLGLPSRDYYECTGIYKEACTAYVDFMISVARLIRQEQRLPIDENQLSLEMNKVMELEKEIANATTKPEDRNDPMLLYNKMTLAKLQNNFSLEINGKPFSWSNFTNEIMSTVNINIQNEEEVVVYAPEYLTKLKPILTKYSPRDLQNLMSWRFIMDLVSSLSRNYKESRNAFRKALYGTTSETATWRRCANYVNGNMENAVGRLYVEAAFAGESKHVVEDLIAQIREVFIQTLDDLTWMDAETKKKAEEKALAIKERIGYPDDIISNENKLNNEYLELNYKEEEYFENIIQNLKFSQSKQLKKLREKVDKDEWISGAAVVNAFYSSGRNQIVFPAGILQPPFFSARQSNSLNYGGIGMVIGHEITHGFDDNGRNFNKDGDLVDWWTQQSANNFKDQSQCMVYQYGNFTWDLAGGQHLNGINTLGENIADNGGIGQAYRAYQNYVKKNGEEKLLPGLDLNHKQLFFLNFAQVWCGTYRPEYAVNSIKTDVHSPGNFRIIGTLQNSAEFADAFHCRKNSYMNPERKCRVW
Protocol: The compounds were investigated for enkephalinase inhibiting activity using the following method.
Rats were killed by decapitation and the striata dissected out on ice. The pooled tissues were homogenised on ice-cold Tris/hydrochloric acid buffer (50 mM, pH 7.70, 30 ml per gram of tissue) and centrifuged (50,000 g, 15 mins). The resulting supernatent was discarded and the remaining pellet washed three times. The washed pellet was solubilised by resuspension in half the volume of buffer as before containing 1.0% (v/v) Triton X-100 and incubated at 37° C. for 45 mins. The suspension was then centrifuged at 100,000 g for 60 mins and the solubilised enzymes contained in the supernatant separated by DEAE-cellulose column chromatography. Enkephalinase Al was further purified by Sephacryl S.300 chromatograph.
Enkephalinase-inhibiting activity was estimated by the following procedure.
Separation of (a) unchanged ^3 H-leucine enkephalin and (b) ^3 H-Tyr-Gly-OH(^3 H-TGG), generated from (a) by enkephalinase Al in the incubation mixture was effected by thin layer chromatography (plastic silica gel plates of 0.1 mm layer thickness, solvent system ethyl acetate:propan-2-ol:5% (v/v) acetic acid, 2:2:1) using solutions of the cold compounds as carriers. After drying the materials were visualized with ninhydrin and appropriate areas of the plates cut out and placed in scintillation vials containing 50% methanol/0.1M hydrochloric acid to elute the ^3 H label. Bioflor reagent (10 ml) was then added and the radioactivity determined by liquid scintillation counting.

`Enkephalinase` = target: T2, `Enkephalinase` (Mus musculus, UniProt Q61391); assay: Activity ex vivo: `enkephalinase` activity in lung and brain homogenates of mice dosed i.p. with test compound; conditions: for ED50: mouse, ip, 0.25 h; for Lung/Brain (ED50 ratio): ratio of apparent ED50 values for lung and brain, 15 min
T2 construct: The lung and brain (less cerebellum) were rapidly dissected, weighed and homogenised; from tissue; host or cells: mouse lung and brain (less cerebellum) homogenate
T2 sequence (Q61391 1-750): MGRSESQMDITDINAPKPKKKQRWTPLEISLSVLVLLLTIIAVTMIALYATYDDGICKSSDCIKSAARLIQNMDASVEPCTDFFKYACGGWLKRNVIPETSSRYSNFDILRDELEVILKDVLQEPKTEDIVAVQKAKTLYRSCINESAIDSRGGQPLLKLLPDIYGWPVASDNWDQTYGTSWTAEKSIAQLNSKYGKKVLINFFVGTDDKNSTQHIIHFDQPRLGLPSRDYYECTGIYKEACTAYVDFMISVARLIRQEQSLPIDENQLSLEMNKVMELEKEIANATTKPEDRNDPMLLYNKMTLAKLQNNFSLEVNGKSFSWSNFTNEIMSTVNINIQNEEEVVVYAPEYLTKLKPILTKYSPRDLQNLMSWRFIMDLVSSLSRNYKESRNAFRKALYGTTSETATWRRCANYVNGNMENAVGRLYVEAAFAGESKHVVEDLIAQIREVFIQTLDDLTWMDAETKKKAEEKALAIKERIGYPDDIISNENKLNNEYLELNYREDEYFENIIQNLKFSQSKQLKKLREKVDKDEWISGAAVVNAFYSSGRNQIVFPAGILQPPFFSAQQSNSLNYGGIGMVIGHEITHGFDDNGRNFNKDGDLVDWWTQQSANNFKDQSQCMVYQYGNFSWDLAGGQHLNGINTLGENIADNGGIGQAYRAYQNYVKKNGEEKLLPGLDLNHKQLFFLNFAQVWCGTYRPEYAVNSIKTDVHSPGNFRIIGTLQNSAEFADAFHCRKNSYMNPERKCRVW
Protocol: Mice were dosed i.p. with 0-30 mg/Kg of test compound suspended in 0.25% w/v celacol/0.85% w/v saline. The mice were killed 15 minutes after administration of the doses. The lung and brain (less cerebellum) were rapidly dissected, weighed and homogenised in 100 mM tris-HCl pH 7.4 buffer containing 1 uM Captopril to give a 9.1% W/V homogenate. `Enkephalinase` activity in the homogenate was measured by incubation at 37° C. with 100 μM [^3 H]-D-Tyr-D-Ala-L-Gly-L-Gly-L-Phe-L-leu for 10 minutes (lung) or 30 minutes (brain).

ACE and enkephalinase = conditions: specificity for ACE over enkephalinase; Swerts et al; cited from earlier work
[1] = lung homogenate, 15 minutes after administration, read-out: Apparent ED50 Lung
[2] = brain (less cerebellum) homogenate, 15 minutes after administration, read-out: Apparent ED50 Brain

Row | ED50 (`Enkephalinase`; [1]) [µmol/kg] | ED50 (`Enkephalinase`; [2]) [µmol/kg] | Structure (SMILES) | IC50 (enkephalinase Al) [nM] | other results
1 | – | – | COc1ccc(CC(C(=O)NO)C(=O)N[C@@H](CC(C)C)C(=O)O)cc1 (stereo partly drawn) [Compound 3, N-[2-(N-Hydroxycarbamoyl)-3-(4-methoxyphenyl)-propanoyl]-L-leucine] | 750 | –
2 | > 26.5 | – | CC(C)C[C@H](NC(=O)C(Cc1ccccc1)C(=O)NO)C(=O)OC(C)(C)C (stereo partly drawn) [Compound 6, Tert-butyl N-[(DL)-2-hydroxycarbamoyl)-3-phenylpropanoyl]-L-leucinate] | – | Apparent ED50 Brain (`Enkephalinase`; brain (less cerebellum) homogenate, 15 minutes after administration): No inhibn. at 26.5
3 | 8.6 | > 85.7 | CCOC(=O)[C@H](CC(C)C)NC(=O)C(Cc1ccccc1)C(=O)NO (stereo partly drawn) [Compound 4, Ethyl N-[(DL)-2-hydroxycarbamoyl)-3-phenylpropanoyl]-L-leucinate] | – | Lung/Brain (ED50 ratio) (`Enkephalinase`): > 10
4 | – | – | CC(C)C[C@H](NC(=O)C(Cc1ccc(C(C)C)cc1)C(=O)NO)C(=O)O (stereo partly drawn) [Compound 2, N-[2-(N-Hydroxycarbamoyl)-3-(4-isopropylphenyl)propanoyl]-L-leucine] | 120 | –
5 | – | – | CC(C)C[C@H](NC(=O)C(Cc1ccc([N+](=O)[O-])cc1)C(=O)NO)C(=O)O (stereo partly shown) [Compound 9] | 520 | –
6 | – | – | C[C@H](CS)C(=O)N1CCC[C@H]1C(=O)O [Captopril, 1-(D-3-mercapto-2-methylpropanoyl)-L-proline (S,S)] | – | concentration required to inhibit ACE by 50% lower than that required for the same inhibition of enkephalinase (ACE and enkephalinase): approximately 1000 fold
7 | 6.1 | 14.6 | CC(C)C[C@H](NC(=O)C(Cc1ccccc1)C(=O)NO)C(=O)O (stereo partly drawn) [Compound 1, N-[2-(N-Hydroxycarbamoyl)-3-phenylpropanoyl]-L-leucine] | 19 | Lung/Brain (ED50 ratio) (`Enkephalinase`): 2.4
8 | – | – | CC(C)C[C@H](NC(=O)C(Cc1ccc(Br)cc1)C(=O)NO)C(=O)O (stereo partly shown) [Compound 10] | 60 | –
9 | 0.69 | 3.92 | O=C(O)CNC(=O)C(CS)Cc1ccccc1 (racemic) [Thiorphan, (DL-3-mercapto-2-benzylpropanoyl)-glycine, reference compound] | – | –
